The results in this text go back to patent US7799907B2, “Method for the preparation of 2′-deoxy-2′,2′-difluorocytidine” (Hanmi Pharm. Co., Ltd, priority 2004, dated 2010).

The nature of this data set: Stability of moisture content of the hemihydrate and dihydrate forms on storage. In kind it is physicochemical. Particulars: for stability for the moisture content changes: under the conditions shown in Table 1.
Where [1] appears, read: 40° C. under 75% relative humidity, 1 day.
[2] abbreviates: 40° C. under 75% relative humidity, 7 days.
The mark [3] stands for this setting: 40° C. under 75% relative humidity, 14 days.

Turning to “2′-Deoxy-2′,2′-difluorocytidine hemihydrate”, the “stability for the moisture content changes” value is “stable”. The “Moisture content (%)” value under setting [1] came out at 3.7%. In addition, under setting [2], the “Moisture content (%)” value amounted to 3.8%. For the same compound, the “Moisture content (%)” value under setting [3] is 3.8%. Moreover, the “Moisture content (%)” value (Air, 1 day) is given as 3.6%. The “Moisture content (%)” value (Air, 7 days) amounted to 3.7%. In addition, where the note is “Air, 14 days”, the “Moisture content (%)” value is reported as 3.4%.

Take `Nc1ccn([C@@H]2O[C@H](CO)[C@@H](O)C2(F)F)c(=O)n1.O.O` [Dihydrate, 2′-Deoxy-2′,2′-difluorocytidine dihydrate]: the “stability for the moisture content changes” value is reported as “stable”. For the same compound, the “Moisture content (%)” value under setting [1] is 12.1%. Further, the “Moisture content (%)” value under setting [2] was 11.9%. For the same compound, the “Moisture content (%)” value under setting [3] is given as 11.7%. In addition, the “Moisture content (%)” value (Air, 1 day) stood at 11.6%. Also, the “Moisture content (%)” value (Air, 7 days) stood at 11.8%. Also, the “Moisture content (%)” value (Air, 14 days) is recorded as 11.7%.
